Experimental data as given in publication PMC5253357, “Racemic Salsolinol and its Enantiomers Act as Agonists of the μ-Opioid Receptor by Activating the Gi Protein-Adenylate Cyclase Pathway” (Frontiers in Behavioral Neuroscience, 2017).
Entries after “also recorded” stand apart in the source; their conditions may differ.

Tests used:
[1] = target: T1, human μ-opioid receptor (Homo sapiens, UniProt P35372); type: cell-based; details: all tested concentrations; listed as racemic SAL
T1 construct: host or cells: CHO-K1
T1 sequence (P35372 whole entry): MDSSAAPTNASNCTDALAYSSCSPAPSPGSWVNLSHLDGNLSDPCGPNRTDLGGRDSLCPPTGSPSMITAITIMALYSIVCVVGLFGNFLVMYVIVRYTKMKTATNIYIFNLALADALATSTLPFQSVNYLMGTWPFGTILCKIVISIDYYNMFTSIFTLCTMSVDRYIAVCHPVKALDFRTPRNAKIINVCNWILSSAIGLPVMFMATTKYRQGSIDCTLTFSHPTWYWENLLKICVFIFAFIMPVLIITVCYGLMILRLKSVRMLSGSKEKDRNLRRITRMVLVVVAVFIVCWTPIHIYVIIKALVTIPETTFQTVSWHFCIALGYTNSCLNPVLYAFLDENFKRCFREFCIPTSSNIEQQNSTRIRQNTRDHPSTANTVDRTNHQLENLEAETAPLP
Description: To assess the activation of the μ-opioid receptor through the recruitment of the β-arrestin signaling pathway, we used a PathHunter® eXpress β-Arrestin GPCR chemiluminescent assay (DiscoverX) following the manufacturer instructions. In this system, the human μ-opioid receptor is fused to a small fragment of β-galactosidase (PK) and co-expressed in cells expressing a fusion protein of β-arrestin and the complementary fragment of β-galactosidase (EA). Activation of the μ-opioid receptor stimulates binding of β-arrestin to the PK-tagged receptor allowing the complementation of the two enzyme fragments of β-galactosidase. This action leads to an activation of the enzyme that can be measured using a chemiluminescent reagent resulting in luminescence, which is proportional to the recruitment of β-arrestin. […] The resulting luminescence was determined with a microplate reader Synergy HT (Biotek).
(§1) The fitting of the data to the correlation was assessed by its corresponding coefficient of determination (R^2), using GraphPad Prism (San Diego, CA, USA).

[2] = target: T1, human μ-opioid receptor; assay: cell-based; details: CHO-K1 cells, forskolin 20 μM, 30 min incubation; read-out: EC50, activation of μ-opioid receptor (reduction of intracellular cAMP)
Description: The intrinsic activity of the ligands was studied using commercially cell-based assays, composed by recombinant CHO-K1 cells that overexpress only the human μ-opioid receptor, detecting the levels of second messengers that reflect the activation of this receptor. To assess the activation of the μ-opioid receptor through the recruitment of G protein signaling pathway, we used the cyclic adenosine monophosphate (cAMP) Hunter® eXpress G protein-coupled receptor (GPCR) Assay (DiscoverX, Freemont, CA, USA) following the manufacturer instructions. In this system, the endogenous cAMP competes with an exogenous cAMP coupled to a truncated β-galactosidase fragment (provided by the assay) for binding to a cAMP antibody. Only the unbound exogenous cAMP-β-galactosidase fragment binds to a complementary β-galactosidase fragment to form the active enzyme. […] Control cells were incubated only with forskolin. The resulting luminescence was measured with a microplate reader Synergy HT (Biotek, Winooski, VT, USA) or a microplate reader SpectraMax M3 (Molecular Devices, Sunnyvale, CA, USA).
as §1

[3] = target: μ-opioid receptor; set-up: method as in Lucchi et al., 1982; details: rat striatum; ref Lucchi et al., 1982; read-out: IC50, displacement of [met]-enkephalin; cited from earlier work

In the case of CC1NCCc2cc(O)c(O)cc21 (racemic) [(R/S)-SAL, 1-methyl-1,2,3,4-tetrahydro-6,7-dihydroxy-isoquinoline], the “Activation of β-arrestin signaling pathway (in words)” value [1] is given as “did not promote the recruitment of β-arrestin; also recorded: unable to activate the β-arrestin signaling pathway; also recorded: does not induce the recruitment of β-arrestin”, the EC50 [2] is given as 20 µM and the IC50 [3] is given as 10 µM.

Compound C[C@H]1NCCc2cc(O)c(O)cc21 [(R)-SAL] has an EC50 [2] of 600 µM.

Work on C[C@@H]1NCCc2cc(O)c(O)cc21 [(S)-SAL] yielded an EC50 [2] of 9 µM.
